Key:
[1] = tested on: Respiratory syncytial virus recombinant with luciferase (RSV-Luc5); assay: NHBE RSV-Luc5 384-well assay (EC50 RSVFLUC NHBE-384 v2), Example W; format: cell-based; conditions: human respiratory syncytial virus, 72 h, read-out: EC50 RSV FLUC NHBE 384 V2 (per Ex. W)
Description: Example W: NHBE RSV-Luc5 384-Well Assay (EC50 RSVFLUC NHBE-384 v2)
Normal Human Bronchial Epithelial (NHBE) cells were purchased from Lonza (Walkersville, MD Cat #CC2540) and maintained in BEGM Bronchial Epithelial Cell Growth Medium BulletKit (Lonza CC-3170).
Cells were thawed, expanded, and were used for experiments at passage 2. Respiratory syncytial virus recombinant with luciferase (RSV-Luc5) (≥1×10^7 Infectious Units/mL (IU/mL) determined by TCID50) was purchased from Microbiologics (Saint Cloud, MN). Viral replication was determined in NHBE cells in the following manner.
Compounds are prepared in 100% DMSO in 384-well polypropylene plates (Greiner, Monroe, NC, Cat #784201) with 8 compounds per plate in grouped replicates of 4 at 10 serially diluted concentrations (1:3). The serially diluted compounds were transferred to low dead volume Echo plates (Labcyte, Sunnyvale, CA, Cat #LP-0200).
The test compounds were spotted to 384-well assay plates (Greiner, Monroe, NC, Cat #781091) at 200 nL per well using an Echo acoustic dispenser (Labcyte, Sunnyvale, CA). NHBE cells were harvested and suspended in BEGM Bronchial Epithelial Cell Growth Medium BulletKit and seeded to the pre-spotted assay plates at 5,000 cells per well in 30 μL. RSV-Luc5 virus was diluted in BEGM Bronchial Epithelial Cell Growth Medium BulletKit at 500,000 Infectious Units (IU) per mL and 10 μL per well was added to the assay plates containing cells and compounds, for an MOI of 1. The assay plates were incubated for 3 days at 37° C. and 5% CO2. At the end of incubation, One-Glo reagent (Promega, Madison, WI, Cat #E6120) was prepared. The assay plates and One-Glo reagent were equilibrated to room temperature for at least 15 minutes. 40 μL per well of One-Glo reagent was added and the plates were incubated at room temperature for 15 minutes before reading the luminescence signal on an EnVision multimode plate reader (Perkin Elmer, Waltham, MA). Remdesivir was used as positive control and DMSO was used as negative control. Values were normalized to the positive and negative controls (as 0% and 100% replication, respectively) and data was fitted using non-linear regression analysis by Gilead's dose response tool. The EC50 value for each compound was defined as the concentration reducing the viral replication by 50%.

[2] = GI S9 stability, rat, Example Y; format: in vitro ADME; conditions: pooled intestinal S9 fractions; rat intestinal S9, 1.0 mg/mL protein, 2 μM compound, pH 7.4; read-out: GIS9 Rat T½ (per Ex. Y)
Procedure: (§1) Example Y: GI S9 Stability Data
(§2) Stock solutions of test compounds in dimethyl sulfoxide (DMSO) having a final concentration of 10 mM were prepared and used in all experiments. Sekisui XenoTech (Kansas City, KS) provided pooled intestinal S9 fractions. All other chemicals were purchased from Sigma-Aldrich (St. Louis, MO) or VWR (West Chester, PA). Internal Standard/Quench (IS/Q) used to stop reactions was 100 nM labetalol in (by volume) methanol (10%) and acetonitrile (90%).
(§3) Stability in Intestinal S9 Fractions: Duplicate aliquots of test compound or positive control substrate were added to S9 stock diluted with phosphate buffered saline (137 mM NaCl, 2.7 mM KCl, 10 mM phosphate buffer), pH 7.4, to obtain a protein concentration of 1.0 mg/mL. The metabolic reactions were initiated by the addition of the substrates to the S9 reaction mixture to a final concentration of 2 μM. At 0, 10, 20, 30, 60 and 120 min, 25 μL aliquots of the reaction mixture were transferred to plates containing 225 μl of IS/Q solution. After quenching, the plates were centrifuged at 3000×g for 30 minutes. 150 μL aliquots of each supernatant were dried down then reconstituted with 300 μL water. Aliquots (10 μL) of the prepared samples were analyzed on a Thermo Q-Exactive mass spectrometer as described below.
(§4) Liquid Chromatography—Mass Spectrometry: Quantification of test compounds and control substrate was performed by analyte/internal standard peak area ratio (PAR) values measured on a Thermo Q-Exactive mass spectrometer coupled to a Dionex UltiMate 3000 HPLC with a Leap Technologies HTC PAL autosampler. The column used for analysis was a Waters Acquity BEH C18 (1.7 μm particle size, 2.1×50 mm). Mobile phase A consisted of 0.1% (v/v) formic acid in water. Mobile phase B consisted of 0.1% (v/v) formic acid in acetonitrile. Elution of analytes was achieved by a series of linear gradients varying the proportions of A and B. The mass spectrometer was calibrated on a weekly basis and mass tolerance of 5 ppm was used.
(§5) Metabolic stabilities in S9 fractions were determined by measuring the rates of disappearance of test compound and positive control substrate.
(§6) Data (% of substrate remaining) were plotted on a semi-log scale and fitted using an exponential decline model:
(§7) Ct=C0×e^−ln2/T1/2×t • Where Ct—% of substrate remaining at time=t; C0—% of substrate remaining at time=0; t—time; T1/2—half-life. • The Half-life (T1/2) is determined by the following equation: […]
(§8) Assuming a first-order reaction, the slope (k) is extrapolated from the aforementioned plotted data.

[3] = GI S9 stability, dog, Example Y; format: in vitro ADME; conditions: dog intestinal S9, 1.0 mg/mL protein, 2 μM compound, pH 7.4; for half-life at 2 μM: pooled intestinal S9 fractions, read-out: GIS9 DOG T½ (per Ex. Y)
Procedure: as §1, §2, §3, §4, §5, §6, §7, §8

[4] = GI S9 stability, cyno, Example Y; format: in vitro ADME; conditions: cynomolgus monkey, pooled intestinal S9 fractions; cyno intestinal S9, 1.0 mg/mL protein, 2 μM compound, pH 7.4; read-out: GIS9 Cyno T½ (per Ex. Y)
Procedure: as §1, §2, §3, §4, §5, §6, §7, §8

[5] = GI S9 stability, human, Example Y; format: in vitro ADME; conditions: pooled intestinal S9 fractions; human intestinal S9, 1.0 mg/mL protein, 2 μM compound, pH 7.4; read-out: GIS9 Human T½ (per Ex. Y)
Procedure: as §1, §2, §3, §4, §5, §6, §7, §8

SMILES | EC50 [1] [µM] | half-life at 2 μM [2] [min] | half-life at 2 μM [3] [min] | half-life at 2 μM [4] [min] | half-life at 2 μM [5] [min] | GIS9 DOG T½ (per Ex. Y) [3] [min]
N#C[C@]1(COC(=O)OC2CCCC2)O[C@@H](c2ccc3c(N)ncnn23)[C@H](O)[C@@H]1O [Compound 1, ((2R,3S,4R,5S)-5-(4-aminopyrrolo[2,1-f][1,2,4]triazin-7-yl)-2-cyano-3,4-dihydroxytetrahydrofuran-2-yl)methyl cyclopentyl carbonate] | 12.8 | 6 | 256 | 11 | 31 | –
CC(C)(C)COC(=O)OC[C@@]1(C#N)O[C@@H](c2ccc3c(N)ncnn23)[C@H](O)[C@@H]1O [Compound 2, ((2R,3S,4R,5S)-5-(4-aminopyrrolo[2,1-f][1,2,4]triazin-7-yl)-2-cyano-3,4-dihydroxytetrahydrofuran-2-yl)methyl neopentyl carbonate] | 11.4 | 6 | 162 | 4 | 23 | –
CC[C@H](C)OC(=O)OC[C@@]1(C#N)O[C@@H](c2ccc3c(N)ncnn23)[C@H](O)[C@@H]1O [Compound 4, ((2R,3S,4R,5S)-5-(4-aminopyrrolo[2,1-f][1,2,4]triazin-7-yl)-2-cyano-3,4-dihydroxytetrahydrofuran-2-yl)methyl ((S)-sec-butyl) carbonate] | 9.85 | 10 | 462 | 22 | 65 | –
COC(=O)OC[C@@]1(C#N)O[C@@H](c2ccc3c(N)ncnn23)[C@H](O)[C@@H]1O [Compound 6, ((2R,3S,4R,5S)-5-(4-aminopyrrolo[2,1-f][1,2,4]triazin-7-yl)-2-cyano-3,4-dihydroxytetrahydrofuran-2-yl)methyl methyl carbonate] | 36.6 | 37 | – | 38 | 201 | 789
CC(C)COC(=O)OC[C@@]1(C#N)O[C@@H](c2ccc3c(N)ncnn23)[C@H](O)[C@@H]1O [Compound 8, ((2R,3S,4R,5S)-5-(4-aminopyrrolo[2,1-f][1,2,4]triazin-7-yl)-2-cyano-3,4-dihydroxytetrahydrofuran-2-yl)methyl isobutyl carbonate] | 12.5 | 7 | 311 | 8 | 29 | –
CCCOC(=O)OC[C@@]1(C#N)O[C@@H](c2ccc3c(N)ncnn23)[C@H](O)[C@@H]1O [Compound 9, ((2R,3S,4R,5S)-5-(4-aminopyrrolo[2,1-f][1,2,4]triazin-7-yl)-2-cyano-3,4-dihydroxytetrahydrofuran-2-yl)methyl propyl carbonate] | 15.9 | 8 | 156 | 19 | 29 | –
CC[C@@H](C)OC(=O)OC[C@@]1(C#N)O[C@@H](c2ccc3c(N)ncnn23)[C@H](O)[C@@H]1O [Compound 10, ((2R,3S,4R,5S)-5-(4-aminopyrrolo[2,1-f][1,2,4]triazin-7-yl)-2-cyano-3,4-dihydroxytetrahydrofuran-2-yl)methyl ((R)-sec-butyl) carbonate] | 11.4 | 13 | – | 9 | 104 | 789
N#C[C@]1(COC(=O)OC2CCOCC2)O[C@@H](c2ccc3c(N)ncnn23)[C@H](O)[C@@H]1O [Compound 12, ((2R,3S,4R,5S)-5-(4-aminopyrrolo[2,1-f][1,2,4]triazin-7-yl)-2-cyano-3,4-dihydroxytetrahydrofuran-2-yl)methyl (tetrahydro-2H-pyran-4-yl) carbonate] | 8.88 | 58 | – | 274 | 789 | –
N#C[C@]1(COC(=O)OC2CC3(CCC3)C2)O[C@@H](c2ccc3c(N)ncnn23)[C@H](O)[C@@H]1O [Compound 36, ((2R,3S,4R,5S)-5-(4-aminopyrrolo[2,1-f][1,2,4]triazin-7-yl)-2-cyano-3,4-dihydroxytetrahydrofuran-2-yl)methyl spiro[3.3]heptan-2-yl carbonate] | 8.42 | 3 | – | – | 14 | –
CC1(C)CC(OC(=O)OC[C@@]2(C#N)O[C@@H](c3ccc4c(N)ncnn34)[C@H](O)[C@@H]2O)C1 [Compound 37, ((2R,3S,4R,5S)-5-(4-aminopyrrolo[2,1-f][1,2,4]triazin-7-yl)-2-cyano-3,4-dihydroxytetrahydrofuran-2-yl)methyl (3,3-dimethylcyclobutyl) carbonate] | 7.44 | 4 | – | – | 29 | –
COC[C@@H](C)OC(=O)OC[C@@]1(C#N)O[C@@H](c2ccc3c(N)ncnn23)[C@H](O)[C@@H]1O [Compound 38, ((2R,3S,4R,5S)-5-(4-aminopyrrolo[2,1-f][1,2,4]triazin-7-yl)-2-cyano-3,4-dihydroxytetrahydrofuran-2-yl)methyl ((R)-1-methoxypropan-2-yl) carbonate] | 7.61 | 38 | – | – | 292 | –
N#C[C@]1(COC(=O)O[C@@H]2C[C@@H]3C[C@@H]3C2)O[C@@H](c2ccc3c(N)ncnn23)[C@H](O)[C@@H]1O [Compound 39, ((2R,3S,4R,5S)-5-(4-aminopyrrolo[2,1-f][1,2,4]triazin-7-yl)-2-cyano-3,4-dihydroxytetrahydrofuran-2-yl)methyl ((1R,3r,5S)-bicyclo[3.1.0]hexan-3-yl) carbonate] | 7.84 | 7 | – | – | 27 | –
C[C@H]1CC[C@H](OC(=O)OC[C@@]2(C#N)O[C@@H](c3ccc4c(N)ncnn34)[C@H](O)[C@@H]2O)CC1 [Compound 40, ((2R,3S,4R,5S)-5-(4-aminopyrrolo[2,1-f][1,2,4]triazin-7-yl)-2-cyano-3,4-dihydroxytetrahydrofuran-2-yl)methyl ((1r,4R)-4-methylcyclohexyl) carbonate] | 7.42 | 6 | – | – | 36 | –
